The text below walks through data of ChEMBL document CHEMBL1141709, “Optimization of small molecule agonists of the thrombopoietin (Tpo) receptor derived from a benzo[a]carbazole hit scaffold” (Bioorg Med Chem Lett, 2008).

The target in test [1] is T1, Thrombopoietin receptor (Homo sapiens) (UniProt P40238).
T1 sequence (whole entry): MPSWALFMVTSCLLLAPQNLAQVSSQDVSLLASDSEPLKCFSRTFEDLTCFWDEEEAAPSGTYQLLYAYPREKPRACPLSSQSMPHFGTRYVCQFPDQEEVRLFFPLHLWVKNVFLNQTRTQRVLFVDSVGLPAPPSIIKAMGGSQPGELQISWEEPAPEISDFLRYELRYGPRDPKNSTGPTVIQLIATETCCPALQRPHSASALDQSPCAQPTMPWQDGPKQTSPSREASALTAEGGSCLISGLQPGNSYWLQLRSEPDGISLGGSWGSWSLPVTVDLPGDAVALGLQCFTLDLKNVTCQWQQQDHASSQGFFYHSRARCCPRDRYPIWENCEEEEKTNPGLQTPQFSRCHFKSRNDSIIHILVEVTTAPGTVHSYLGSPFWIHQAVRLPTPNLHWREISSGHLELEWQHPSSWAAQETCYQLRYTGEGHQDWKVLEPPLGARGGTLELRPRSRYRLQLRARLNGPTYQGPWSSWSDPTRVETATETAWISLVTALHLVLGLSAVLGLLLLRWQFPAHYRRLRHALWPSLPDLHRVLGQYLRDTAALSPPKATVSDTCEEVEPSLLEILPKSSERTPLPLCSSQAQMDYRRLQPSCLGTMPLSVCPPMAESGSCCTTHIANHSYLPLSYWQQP
The experiment in a line: Agonist activity at human thrombopoietin receptor expressed in mouse Ba/F3 cells by kinase activation based reporter gene assay relative to 30 ng/mL thrombopoietin. It counts as functional, cell-based. The following applies: BaF3. A general note: In a reporter assay the amount or activity of a reporter protein is the signal.

Test [2] addresses T2, Thrombopoietin receptor (Homo sapiens, UniProt P40238).
T2 sequence (P40238 whole entry): T1 sequence (whole entry)
The experiment in a line: Agonist activity at human thrombopoietin receptor expressed in mouse Ba/F3 cells by kinase activation based reporter gene assay. It counts as functional, cell-based, BaF3.

The nature of test [3]: Thrombopoietic activity in human megakaryocytes assessed as induction of cell differentiation by CFU-mega assay. It counts as functional, cell-based.
Test [4] deals with T1, Thrombopoietin receptor (Homo sapiens). The experiment in a line: Agonist activity at human thrombopoietin receptor expressed in mouse Ba/F3 cells in presence of 1 mM Zinc by kinase activation based reporter gene assay. The class given is functional, cell-based. Particulars: BaF3.
The target is the same in test [5]. The experiment in a line: Agonist activity at human thrombopoietin receptor expressed in mouse Ba/F3 cells in presence of 1 mM Zinc by kinase activation based reporter gene assay relative to 30 ng/mL thrombopoietin. Particulars: BaF3. The class given is functional, cell-based.

As for `CCCCc1ccc(-c2ccc3cc(-c4ccc(C(=O)O)cc4)[nH]c3c2F)cc1`, the Efficacy in test [1] turned out to be 112%. For the same compound, in test [2], the EC50 (as a rule, the concentration at which the effect is half-maximal) was determined as 117 nM.

As to `CCCCc1ccc(-c2ccc3c4c([nH]c3c2)-c2ccc(C(=O)O)cc2S(=O)(=O)C4)cc1`, in test [1], the Efficacy turned out to be 115%. The response in test [2] was half-maximal at 449 nM (EC50).

In the case of `CCCCc1ccc(-c2ccc3c4c([nH]c3c2)-c2ccc(C(N)=O)cc2C4)cc1`, the Efficacy in test [1] stood at 118%. The compound also registered an EC50 in test [2] of 86 nM.

In the case of `CCCCc1ccc(-c2ccc3nc(-c4ccc(C(=O)O)c(O)c4)[nH]c3c2)cc1`, the Efficacy in test [1] was 121%. In test [2], this compound had an EC50 of 179 nM.

Take `CCCCc1ccc(-c2ccc3c4c([nH]c3c2F)-c2ccc(NC(C)=O)cc2C4)cc1`: the Efficacy in test [1] was determined as 117%. Further, the EC50 was determined as 300 nM in test [3] and 25 nM in test [2].

As for `CC1=NN(c2ccc(C)c(C)c2)C(=O)/C1=N\Nc1cccc(-c2cccc(C(=O)O)c2)c1O` [ELTROMBOPAG], the Efficacy in test [1] turned out to be 127%. For the same compound, in test [2], the response was half-maximal at 38 nM (EC50).

Regarding `CCCCc1ccc(-c2ccc3cc(-c4ccc(C(=O)O)c(O)c4)[nH]c3c2F)cc1`, the Efficacy in test [1] is 141%. The compound further had an EC50 in test [2] of 51 nM.

On to `CCCCc1ccc(-c2ccc3c(C(C)C)c(-c4ccc(C(=O)O)c(O)c4)[nH]c3c2F)cc1`, for which the Efficacy in test [1] is 70%. This compound gave an EC50 in test [2] of more than 1000 nM.

For `CCCCc1ccc(-c2ccc3c(C)c(-c4ccc(C(=O)O)c(O)c4)[nH]c3c2F)cc1`, the Efficacy in test [1] worked out at 119%. Also, a half-maximal response in test [2] (EC50) required 116 nM.

Consider `CCCCc1ccc(-c2ccc3c4c([nH]c3c2F)-c2ccc(NS(C)(=O)=O)cc2C4)cc1`, for which, in test [4], the EC50 turned out to be 166 nM. The Efficacy in test [5] was found to be 95%.

With `CCCCc1ccc(-c2ccc3c4c([nH]c3c2)-c2ccc(C(=O)O)cc2C4)cc1`, the Efficacy in test [1] amounted to 91%. Further, the EC50 in test [2] was found to be 160 nM.

`CCCCc1ccc(-c2ccc3c4c([nH]c3c2F)-c2cc(NC(C)=O)c(C(=O)O)cc2C4)cc1`: the Efficacy in test [1] stood at 90%. In test [2], a half-maximal effect (EC50) was put at 376 nM.

Consider `CCCCc1ccc(-c2ccc3c(CC)c(-c4ccc(C(=O)O)c(O)c4)[nH]c3c2F)cc1`, for which the Efficacy in test [1] was determined as 97%. Besides, in test [2], the EC50 worked out at 228 nM.

Take `Cc1cc(-c2ccc3c4c([nH]c3c2F)-c2ccc(C(N)=O)cc2C4)ccc1F`: the Efficacy in test [1] worked out at 105%. In test [2], this compound returned an EC50 of 277 nM.

As for `Cc1cc(-c2ccc3c4c([nH]c3c2F)-c2ccc(C(N)=O)cc2COC4=O)ccc1F`, the Efficacy in test [1] turned out to be 0%. The compound also came in with an EC50 in test [2] of more than 30000 nM.

As to `Cc1cc(-c2ccc3c4c([nH]c3c2F)-c2ccc(C(N)=O)cc2OC4)ccc1F`, the Efficacy in test [1] came to 83%. This compound gave an EC50 in test [2] of 1430 nM.

On to `CCCCc1ccc(-c2ccc3cc(-c4ccc(C(N)=O)cc4)[nH]c3c2F)cc1`, for which the Efficacy in test [1] was 81%. The compound also showed an EC50 in test [2] of 160 nM.

`CCCCc1ccc(-c2ccc3c4c([nH]c3c2)-c2ccc(C(=O)O)cc2CC4)cc1` gave an EC50 in test [2] of 111 nM.

With `CCCCc1ccc(-c2ccc3c4c([nH]c3c2F)-c2ccc(NC(=O)C(=O)O)cc2C4)cc1`, the Efficacy in test [1] came out at 110%. Besides, the EC50 in test [2] is 21 nM.

Consider `Cc1cc(-c2ccc3c4c([nH]c3c2F)-c2ccc(C(=O)O)cc2C4)ccc1F`, for which the Efficacy in test [1] was 144%. In test [2], this compound yielded an EC50 of 26 nM.

As to `CCCCc1ccc(-c2ccc3c4c([nH]c3c2F)-c2ccc(C(=O)O)cc2C4(C)C)cc1`, in test [1], the Efficacy was 118%. The compound also returned an EC50 in test [2] of 111 nM.

For `CCCCc1ccc(-c2ccc3c4c([nH]c3c2F)-c2ccc(C(=O)O)cc2C4)cc1`, in test [1], the Efficacy was 151%. A half-maximal response in test [2] (EC50) required 37 nM.

Consider `CCCCc1ccc(-c2ccc3nc(-c4ccc(C(=O)O)cc4)[nH]c3c2)cc1`, for which the Efficacy in test [1] is 83%. The compound further showed an EC50 in test [2] of 1260 nM.

For `CCCCc1ccc(-c2ccc3c4c([nH]c3c2F)-c2cc(N)c(C(=O)O)cc2C4)cc1`, the EC50 in test [4] was 341 nM. In addition, the Efficacy in test [5] amounted to 70%.

With `CCCCc1ccc(-c2ccc3c4c([nH]c3c2F)-c2ccc(NC(=O)CO)cc2C4)cc1`, the EC50 in test [4] was 87 nM. For the same compound, the Efficacy in test [5] worked out at 98%.

For the compound `CCCCc1ccc(-c2ccc3c4c([nH]c3c2)-c2ccc(C(=O)O)cc2CCC4)cc1`, the EC50 in test [4] was found to be 332 nM. Moreover, the Efficacy in test [5] worked out at 71%.

For `CCCCc1ccc(-c2ccc3c4c([nH]c3c2F)-c2ccc(NC(N)=O)cc2C4)cc1`, in test [4], the EC50 came to 124 nM. In addition, the Efficacy in test [5] is 128%.
